Measurements as given in US11932595B2, “VDR-silent vitamin D derivative as inhibitors of SREBP and pharmaceutical use thereof” (KYOTO UNIVERSITY, priority 2020, dated 2024).
Values belong to the molecule of their own block, whether it stands above or below them.

Legend:
SREBP = SREBP luciferase reporter assay (pSRE-Luc) in CHO-K1 cells; assay type: cell-based; conditions: for SREBP inhibitory activity (expression of SREBP-responsive luciferase reporter gene): CHO-K1 cells, 5 μM compound, lipid-free medium, 24 h, FIGS. 1 and 3
Procedure: (§1) Cell Culture: CHO-K1 cells were maintained in medium A (1:1 mixture of Ham's F-12 medium and DMEM, supplemented with 100 units/mL penicillin, 100 μg/mL streptomycin sulfate, and 5% [v/v] fetal bovine serum) at 37° C. in a humidified 5% CO2 incubator.
(§2) CHO-K1 cells were seeded into 96-well plates at 8×10^3 cells per well in medium A and incubated for 24 h. For SREBP reporter assay, cells were co-transfected with an SRE-1-driven luciferase reporter plasmid (pSRE-Luc) and an actin promoter-driven β-galactosidase expression plasmid (pAc-13-gal) at a 20:1 ratio, using FuGENE HD Transfection Reagent (Promega) according to the manufacturer's protocol.
(§3) After 20 h, the medium was changed to medium B (1:1 mixture of Ham's F-12 medium and DMEM, supplemented with 100 units/mL penicillin, 100 μg/mL streptomycin sulfate, 5% [v/v] lipid-depleted serum, 50 μM compactin (Tokyo Chemical Industry), and 50 μM lithium mevalonate (Sigma-Aldrich) containing the specific test compounds. After 24 h incubation, the cells in each well were lysed with 100 μL of 1× Reporter Lysis Buffer (Promega), and 50 μL of aliquots were used to measure luciferase and 13-gal activities. Luciferase activity was measured using the Steady-Glo Luciferase Assay System (Promega), and 13-gal activity was measured using the 13-Galactosidase Enzyme Assay System (Promega). Luciferase activity was normalized to 13-gal activity.
[…] The same experiment using of 25(OH)D3 (1) was performed as control. Values are mean±SD.

[1] = Maynard et al. J Med. Chem. 1994; cited from earlier work
[2] = cited from earlier work
SREBP/SCAP = conditions: Nagata, ACS Chem. Biol. 2019; cited from earlier work
VDR = VDR reporter assay (Cignal Vitamin D Receptor Reporter) in CHO-K1 cells; assay type: cell-based; conditions: 5 μM compound, lipid-free medium, FIGS. 2 and 4
Procedure: as §1, §2
For VDR reporter assay, Cignal Vitamin D Receptor Reporter (QIAGEN) was transfected instead of pSRE-Luc.
as §3
For the VDR assay, CHO-K1 cells were treated with 5 μM of the compounds in a lipid-free medium. The same experiment using 25(OH)D3 (1) was performed as control. Values are mean±SD.

[3] = Short-term in vivo model: serum calcium levels; set-up: species or system mice; conditions: 10 mg/kg intraperitoneally, after 4 days, n=3, FIG. 5D
Procedure: (§4) To quickly and simultaneously examine their SREBP inhibitory activity and VDR-derived calcemic activity in vivo, a short-term in vivo screening system of mice was established. With reference to the previous report (Horton, J. D. et al. Proc. Natl. Acad. Sci. U.S.A. 1998, 95, 5987-5992.), mice were fasted for 48 hours then refed a special diet (low fat, high carbohydrate diet, lacking in vitamin D) for 48 hours before sacrifice.
(§5) C57BL/6 and oh/oh mice were purchased from CLEA Japan and Charles River Japan, Inc., respectively. Animal experiments were carried out at the University of Tokyo and Charles River Laboratories. Low fat, high carbohydrate diet, lacking vitamin D was custom made by Research Diets, Inc. Compounds disclosed herein and 25(OH)D3 were dissolved in ethanol/Tween 20 (9:1) to obtain stock solution and then diluted 10-fold with PBS immediately before administration to mice.
(§6) 10 mg/kg compounds or vehicle control were administered intraperitoneally once every 24 hours during the fasting and refeeding.
Following sacrifice, mouse livers were fixed in 10% neutral-buffered formalin, embedded in paraffin, sectioned, and stained with H&E. Hepatic lipids were extracted with chloroform/methanol (2:1 v/v), and TG and cholesterol contents were measured with Triglyceride Reagent Set (Pointe Scientific) and Cholesterol E (Wako), respectively. Serum levels of ALT, TG, glucose, cholesterol, and calcium were measured in SRL Inc. (Tokyo). All experiments were approved by the Ethics Committee for Animal Experimentation of the University of Tokyo and Charles River Laboratories Japan, and were conducted in accordance with the Guidelines for the Care and Use of Laboratory Animals.
Serum calcium levels in the mice treated with vehicle, compounds, or 25(OH)D3 were determined (means±SEM, n=3 per group), *p<0.05 (FIG. 5D).

SREBP-responsive genes = assay: Short-term in vivo model (fasting/refeeding): hepatic mRNA of SREBP-responsive genes by real-time PCR; set-up: species or system mice; conditions: for hepatic expression of SREBP-response genes ACC1 and FASN versus vehicle: 10 mg/kg intraperitoneally once every 24 hours, fasted 48 h/refed 48 h, n=3, FIG. 5C
Procedure: as §4, §5, §6
Relative mRNA levels of SREBP-responsive genes were determined by real-time PCR in the livers obtained from the mice with free access to a normal diet or fasted and refed a special diet (means SEM, n=3 per group), *p<0.05.
Expression levels of SREBP-responsive genes were determined by real-time PCR in the livers obtained from the mice treated with indicated compounds (10 mg/kg) according to the protocol illustrated in FIG. 5A. Data are expressed as relative expression to the mean value of vehicle-treated mouse liver (means±SEM, n=3 per group), *p<0.05 (FIG. 5C).
Relative mRNA levels of SREBP-responsive genes were determined by real-time PCR in the livers obtained from the indicated mice Data are means±SEM (fed mice, n=3; others, n=6), *p<0.05 (FIG. 5E).

SMILES: CC1=C(/C=C\C2=CCC[C@@]3(C)[C@@H]2CC[C@@H]3[C@H](C)CCCC(C)(C)O)C[C@@H](O)C[C@@H]1O [14-epi-25(OH) D3, reference compound]
- expression of an SREBP-responsive luciferase reporter (SREBP; screening of in-house collection, data not shown): comparable level to 25(OH)D3
- calcemic action [1]: markedly decreased calcemic action

SMILES: Cc1ccc(S(=O)(=O)N[C@@H]2C/C(=C/C=C3\CCC[C@]4(C)[C@@H]([C@H](C)CCCC(O)(C(F)(F)F)C(F)(F)F)CC[C@@H]34)C[C@@H](F)C2)cc1 [Compound 3]
- calcemic activity in vivo ([2]; high doses): residual calcemic activity
- bioavailability ([2]; in vivo): low
- effect on SREBP/SCAP and VDR activity in cultured cells (SREBP/SCAP): selectively impaired SREBP/SCAP without eliciting VDR activity

SMILES: C[C@H](CCCC(C)(C)O)[C@H]1CC[C@H]2/C(=C/C(=O)N3CCCCC3)CCC[C@]12C [Compound 19, 2-{(1R,3 aS,7 aR,E)-1-[(R)-6-Hydroxy-6-methylheptan-2-yl]-7a-methyloctahydro-4H-inden-4-ylidene}-1-(piperidin-1-yl)ethan-1-one]
- SREBP inhibitory activity (expression of SREBP-responsive luciferase reporter gene) (SREBP): little effect

SMILES: C[C@H](CCCC(C)(C)O)[C@H]1CC[C@H]2/C(=C/C(=O)N3CCOCC3)CCC[C@]12C [Compound 20, 2-{(1R,3aS,7aR,E)-1-[(R)-6-Hydroxy-6-methylheptan-2-yl]-7a-methyloctahydro-4H-inden-4-ylidene}-1-morpholinoethan-1-one]
- SREBP inhibitory activity (expression of SREBP-responsive luciferase reporter gene) (SREBP): little effect

SMILES: C[C@H](CCCC(C)(C)O)[C@H]1CC[C@H]2/C(=C/Cn3cnnn3)CCC[C@]12C [Compound 21, (R)-6-{(1R,3aS,7aR,E)-4-[2-(1H-Tetrazol-1-yl)ethylidene]-7a-methyloctahydro-1H-inden-1-yl}-2-methylheptan-2-ol]
- VDR activity (VDR reporter activation) (VDR): detectable VDR activity

SMILES: C[C@H](CCCC(C)(C)O)[C@H]1CC[C@H]2/C(=C/Cn3ncnn3)CCC[C@]12C [Compound 22]
- VDR activity (VDR reporter activation) (VDR): detectable VDR activity

SMILES: C[C@H](CCCC(C)(C)O)[C@H]1CC[C@H]2/C(=C/Cn3cc(-c4ccccn4)nn3)CCC[C@]12C [Compound 26, (R)-2-Methyl-6-[(1R,3aS,7aR,E)-7a-methyl-4-{2-[4-(pyridin-2-yl)-1H-1,2,3-triazol-1-yl]ethylidene}octahydro-1H-inden-1-yl]heptan-2-ol]
- VDR activity (VDR reporter activation) (VDR): detectable VDR activity

SMILES: C[C@H](CCCC(C)(C)O)[C@H]1CC[C@H]2/C(=C/Cn3cc(CCCCO)nn3)CCC[C@]12C [Compound 29, 6-[(1R,3aS,7aR,E)-4-{2-[4-(4-Hydroxybutyl)-1H-1,2,3-triazol-1-yl]ethylidene}-7a-methyloctahydro-1H-inden-1-yl]-2-methylheptan-2-ol]
- VDR activity (VDR reporter activation) (VDR): detectable VDR activity

- serum calcium levels [3]: elevated levels of serum calcium
SMILES: C[C@H](CCCC(O)(C(F)(F)F)C(F)(F)F)[C@H]1CC[C@H]2/C(=C/Cn3cc(-c4ccccc4)nn3)CCC[C@]12C [Compound 38, (R)-1,1,1-Trifluoro-6-{(1R,3aS,7aR,E)-7a-methyl-4-[2-(4-phenyl-1H-1,2,3-triazol-1-yl)ethylidene]octahydro-1H-inden-1-yl}-2-(trifluoromethyl)heptan-2-ol]
- hepatic expression of SREBP-response genes ACC1 and FASN versus vehicle (SREBP-responsive genes): significantly suppressed

- serum calcium levels [3]: elevated levels of serum calcium
SMILES: C[C@H](CCCC(O)(C(F)(F)F)C(F)(F)F)[C@H]1CC[C@H]2/C(=C/Cn3cc(-c4ccc(F)cc4)nn3)CCC[C@]12C [Compound 39, (R)-1,1,1-Trifluoro-6-[(1R,3aS,7aR,E)-4-{2-[4-(4-fluorophenyl)-1H-1,2,3-triazol-1-yl]ethylidene}-7a-methyloctahydro-1H-inden-1-yl]-2-(trifluoromethyl)heptan-2-ol]
- SREBP inhibitory activity (expression of SREBP-responsive luciferase reporter gene) (SREBP): maintained SREBP inhibitory activities
- hepatic expression of SREBP-response genes ACC1 and FASN versus vehicle (SREBP-responsive genes): significantly suppressed
- VDR activity (VDR reporter activation) (VDR): lacked in VDR activity

SMILES: C[C@H](CCC(F)(F)C(C)(C)O)[C@H]1CC[C@H]2/C(=C/Cn3cc(-c4ccc(F)cc4)nn3)CCC[C@]12C [Compound 47, (R)-3,3-Difluoro-6-[(1R,3aS,7aR,E)-4-{2-[4-(4-fluorophenyl)-1H-1,2,3-triazol-1-yl]ethylidene}-7a-methyloctahydro-1H-inden-1-yl]-2-methylheptan-2-ol]
- SREBP inhibitory activity (expression of SREBP-responsive luciferase reporter gene) (SREBP): maintained SREBP inhibitory activities
- VDR activity (VDR reporter activation) (VDR): lacked in VDR activity

- serum calcium levels [3]: no detectable increase
SMILES: C[C@H](CCC(F)(F)C(C)(C)O)[C@H]1CC[C@H]2/C(=C/Cn3nnc(-c4ccc(F)cc4)n3)CCC[C@]12C [Compound 49, 3,3-Difluoro-6-[(1R,3aS,7aR,E)-4-{2-[5-(4-fluorophenyl)-2H-tetrazol-2-yl]ethylidene}-7a-methyloctahydro-1H-inden-1-yl]-2-methylheptan-2-ol]
- SREBP inhibitory activity (expression of SREBP-responsive luciferase reporter gene) (SREBP): maintained SREBP inhibitory activities
- hepatic expression of SREBP-response genes ACC1 and FASN versus vehicle (SREBP-responsive genes): significantly suppressed
- elevated hepatic expression of the three SREBP-responsive genes ACC1, FASN and SCD1 (SREBP-responsive genes; 10 mg/kg intraperitoneally, fasting/refeeding, FIG. 5C): mitigated the elevated expression
- VDR activity (VDR reporter activation) (VDR): lacked in VDR activity

SMILES: C[C@H](CCC(F)(F)C(C)(C)O)[C@H]1CC[C@H]2/C(=C/Cn3nnnc3-c3ccc(F)cc3)CCC[C@]12C [Compound 51, (R)-3,3-Difluoro-6-[(1R,3aS,7aR,E)-4-{2-[5-(4-fluorophenyl)-1H-tetrazol-1-yl]ethylidene}-7a-methyloctahydro-H-inden-1-yl]-2-methylheptan-2-ol]
- SREBP inhibitory activity (expression of SREBP-responsive luciferase reporter gene) (SREBP): maintained SREBP inhibitory activities
- VDR activity (VDR reporter activation) (VDR): lacked in VDR activity
